Experimental data: patent publication US9486423B2, “Redox-directed chelators targeting intracellular metal ions” (THE ARIZONA BOARD OF REGENTS ON BEHALF OF THE UNIVERSITY OF …, priority 2014, dated 2016)
Blank lines part the entries; values can stand above or below the molecule they belong to.

Key:
[1] = system: SK-N-MC (neuroepithelioma) cells; assay: MTT assay of cell viability, SK-N-MC; format: cell-based; details: 48 h exposure, in the presence of human holotransferrin
Protocol: (§1) The present inventors have also investigated the antiproliferative activity of series of pro-chelators and chelators of the invention towards human cell lines. MTT assays of cell viability (Table 1) were performed on two cancer cell lines, neuroepithelioma SK-N-MC and breast adenocarcinoma MDA-MB-231, which are well studied in the context of iron deprivation. The established antiproliferative iron chelator DFO was used as a control and its toxicity profiles compared well to literature ones for these cell lines. Viability measurements were conducted in the presence of human holotransferrin in order to load intracellular iron pools and assess antiproliferative activity related to intracellular iron deprivation.
(§2) MDA-MB-231 (ATCC® HTB-26™) breast adenocarcinoma cells and SK-N-MC (ATCC® HTB-10™) neuroepithelioma cells were cultured under a 5% CO2 humidified atmosphere at 37° C. in Eagle's Minimal Essential Medium (EMEM) supplemented with 10% fetal bovine serum (FBS), glutamine (2 mM), sodium pyruvate (1 mM), sodium bicarbonate ([…]), penicillin (100 units/mL), streptomycin (100 μg/mL) and 1.25 μM (1 mg/10 mL) human holo-transferrin (Aldrich) prior to use. Jurkat T lymphocytes (ATCC® T1B-152™) were cultured at 37° C. under a 5% CO2 humidified atmosphere in RPMI 1640 media supplemented with 10% FBS, penicillin (5 mg/ml) and streptomycin (1 mg/ml), and maintained at a density lower than 2.0×10^6 cells/mL.

[2] = system: MDA-MB-231 (breast adenocarcinoma) cells; assay: MTT assay of cell viability, MDA-MB-231; format: cell-based; details: in the presence of human holotransferrin
Protocol: as §1, §2

[3] = system: MRC-5 (normal lung fibroblast) cells; assay: MTT assay of cell viability, MRC-5; format: cell-based, human; details: for IC50: MTT assay, 72 h exposure; for toxicity in normal lung fibroblasts (comparison): normal cells
Protocol: as §1
Because normal cells divide at a lower rate, MTT assays were performed after exposures of 48 h and also 72 h (Table 1).

[4] = Reduction by GSH monitored by UV-visible absorption spectroscopy; format: physicochemical; details: GSH 11.0 mM
Protocol: FIG. 2 is a graph showing reduction of (TC1-S)2 (9.0 μM) by GSH (11.0 mM) as monitored by UV-visible absorption spectroscopy in buffered aqueous solution (50 mM PIPES, pH 7.4) at 25° C. Spectral changes during the reduction of (TC1-S)2 (Line 2, […]) to TC1-SH (Line 1) by GSH (11.0 mM). The reaction goes to substantial completion within 2 h.
The reduction of (TC1-S)2 can be monitored in vitro by UV-visible absorption spectroscopy. FIG. 2.

[5] = Equilibration in GSH/GSSG redox buffer solutions at different half-cell potentials; format: physicochemical; details: half-cell potentials of −220 mV or lower (vs SHE); 12.5 μM disulfide, 11-13 mM total glutathione, 2 h
Protocol: FIG. 3 is a graph showing the fraction of reduced chelator TC1-SH obtained from UV-visible absorption data in GSH/GSSG redox buffer solutions at different half-cell potentials. Total ([GSH]+[GSSG]) was maintained at 11-13 mM, whereas initial [(TC1-S)2] was 12.5 μM. Samples were allowed to equilibrate for 2 h. Data points are plotted as average of triplicate measurements±standard deviation.
In order to estimate the speciation of the prochelator/chelator system in solutions containing glutathione levels reflecting biologically relevant conditions, disulfide (TC1-S)2 was allowed to equilibrate in a series of redox buffer mixtures. The half-cell potentials for the solutions were calculated based on the concentrations of GSH and GSSG and they were selected to include values from those typically associated to proliferating cells (−240 mV vs SHE) to those found in necrotic cells (−180 mV). […] FIG. 3. As such, in this model of intracellular conditions containing micromolar chelation system and millimolar glutathione buffer, the chelation system after equilibration was found prevalently in its reduced iron-binding form at glutathione half-cell potentials that are characteristic of proliferating and malignant cells.

MDA-MB-231 cells [6] = assay: Effect of NAC supplementation on toxicity (viability assay); format: cell-based, human; details: 10.0 μM compound, 48 h, after 6 h NAC
Protocol: FIG. 4 is a bar graph showing the effect of N-acetyl cystein (NAC) supplementation on the toxicity of DFO (10 μM) and (TC1-S)2 (10 μM). MDA-MB-231 cells were incubated with NAC for 6 h before treatment with DFO (10.0 μM) or (TC1-S)2 (10.0 μM) for 48 h. Percent viability is expressed relative to control treated with DMSO and averaged over three experiments±percent standard deviation.
The control of reducing conditions employed in vitro in the experiments summarized above cannot be achieved in cell culture; nevertheless, the intracellular concentration of GSH can be increased by supplementing with N-acetyl cysteine (NAC), a precursor required for GSH biosynthesis. […] FIG. 4.

Jurkat cells = assay: Calcein-AM fluorescence assay of intracellular iron binding; format: cell-based, human; details: suspended Jurkat cells loaded with calcein; SIH added after (TC1-S)2
Excerpt: FIG. 5 is a graph showing displacement of paramagnetic ions and restoration of calcein fluorescence by addition of chelators (TC1-S)2 and SIH at the indicated times and final concentrations in suspended Jurkat cell cultures. Fluorescence intensity at 517 nm (excitation, 488 nm) is plotted as the difference from the initial values before any addition. DMSO concentration was kept constant in all solutions.
Intracellular iron binding was first examined using calcein-AM, the acetoxymethyl ester of a fluorescein-based sensor of metal ions in biological specimens. Trapped intracellularly upon hydrolysis of the ester groups by esterases, calcein coordinates iron and possibly other (far less abundant) cations (e.g., Cu(II) and Zn(II)). Calcein stabilizes ferric iron coordination and this paramagnetic ion quenches considerably its fluorescence emission.

[7] = system: ribonucleotide reductase (RNR) tyrosyl radical in Jurkat cells; assay: Whole-cell EPR of the tyrosyl radical of ribonucleotide reductase; format: cell-based, human; details: 50 μM
Protocol: FIG. […] Experimental conditions: microwave frequency, 9.338 GHz; microwave power, 2 mW; magnetic field modulation amplitude, 0.5 mT; temperature, 30° K.
EPR data were also used to examine the effect of chelation system on the tyrosyl radical that characterizes the active site of ribonucleotide reductase (RNR), the iron-dependent enzyme that is believed to be essential in DNA biosynthesis.

MDA-MB-231 cells [8] = assay: Intracellular ROS generation, oxidation of DCFH2 to DCF; format: cell-based, human; details: 30 min incubation, compared to H2O2 (100 μM) positive control
Protocol: FIG. 8 is a bar graph showing intracellular generation of ROS monitored through the oxidation of DCFH2 to fluorescent DCF (ex: 485 nm, em: 528 nm). MDA-MB-231 cells were treated with DCFH2-DA (10 μM, 10 min), washed and then incubated with test compounds (concentrations as shown, 30 min). H2O2 (100 μM) was employed as a positive control. Measurements were conducted in triplicate and reported as average±standard deviation.
The in-vitro results above were confirmed in cultures of MBA-MD-231 breast carcinoma cells using a fluorescence-based assay of ROS generation. Added to the growth media, cell-permeable dihydrodichlorofluorescein diacetate (DCFH2-DA) was hydrolized intracellularly to trap the probe dihydrodichlorofluorescein (DCFH2), which was oxidized by several ROS to give the bright fluorescent product dichlorofluorescein. […] FIG. 8.

[9] = Cyclic voltammetry in DMF; format: physicochemical; details: glassy carbon electrode
Excerpt: FIG. 10 is a cyclic voltammograms of disulfides 1a-c at a glassy carbon electrode in DMF with (n-Bu4N)(PF6) as supporting electrolyte. Data collected at a 100 mVS^−1 sweep rate using Ag/AgNO3 reference electrode and a platinum wire auxiliary electrode.
The reduction of disulfides 1a-c was investigated by electrochemical methods in N,N-dimethylformamide. FIG. 10. The collected cyclic voltammograms present irreversible cathodic peaks that are characteristic of aromatic disulfide reduction and correspond to the two-electron reductive process leading to formation of two thiolate ions. Consistent with reported electronic effects of substituents in aromatic disulfides, peak reduction potentials of compounds 1a-c vary considerably with the substitution on the thiosemicarbazone unit. […] These experiments established that electronic effects of the partially conjugated chelating units modulate the thermodynamic drive to reduction of disulfide constructs. Similarly, it is expected that an electron withdrawing group substituent on the phenyl ring itself (e.g., R^3 and/or R^4 in Formula I) will also result in lower reduction potential. As used herein, the term “electron withdrawing group” refers to any substituent that draws electron density away from a given center (e.g., disulfide or thiol group in compounds 1a-c and 2a-c, respectively). […]

[10] = Iron coordination with Fe(BF4)2.6H2O; format: binding; details: organic solvents and buffered aqueous solutions
Excerpt: Consistent with the modest coordinating ability of disulfide linkages in general and the conformational restraints they impose on the joint thiosemicarbazone units in this case, disulfides 1a-c behave as masked pro-chelators of low iron coordinating ability.
Conversely, thiols 2a-c react readily with Fe(BF4)2.6H2O in organic solvents and in buffered aqueous solutions. From reactions in THF, iron complexes 3a-c were isolated by crystallization and characterized by high-resolution mass spectrometry and elemental analysis. Complexes 3a (FIG. 11) and 3b were also characterized by single crystal X-ray diffraction analysis.

[11] = clinical trials terminated; cited from earlier work

IC50 [1]: 8.91 ± 0.09 µM
IC50 ([2]; 48 h exposure): 22.07 ± 0.04 µM
SMILES: NC(=S)NN=Cc1ccccc1SSc1ccccc1C=NNC(N)=S [Compound 1a]

IC50 [1]: 6.81 ± 0.17 µM
IC50 ([2]; 48 h exposure): 4.59 ± 0.06 µM
conversion of disulfide to thiol ([4]; neutral buffered aqueous solution, 9.0 μM): converted substantially quantitatively
estimated equilibrium percentage of thiol [5]: greater than 80%
SMILES: S=C(NN=Cc1ccccc1SSc1ccccc1C=NNC(=S)Nc1ccccc1)Nc1ccccc1 [Compound 1c]
IC50 ([2]; 48 h exposure, listed as (TC1-S)2): 4.6 µM
IC50 [3]: 30.91 ± 0.02 µM
toxicity in normal lung fibroblasts (comparison) [3]: significantly less toxic than its corresponding thiol 2c
toxicity in normal lung fibroblasts (comparison) ([3]; listed as (TC1-S)2): significantly less toxic than DFO
time to substantial completion of reduction to TC1-SH ([4]; 9.0 μM disulfide, 50 mM PIPES, pH 7.4, 25° C.): ≤ 2 h
effect of increasing NAC on toxicity (MDA-MB-231 cells [6]): more susceptible
calcein fluorescence intensity (Jurkat cells): concentration-dependent increase in fluorescence intensity
RNR tyrosyl radical EPR signal ([7]; 1 h): decrease in RNR signal amplitude
intracellular generation of ROS (DCF fluorescence) (MDA-MB-231 cells [8]): did not elicit significant turn-on response
ease of disulfide reduction (peak reduction potential) [9]: easier to reduce compared to analogues 1a and 1b

IC50 [1]: 5.19 ± 0.17 µM
IC50 ([2]; 48 h exposure): 15.01 ± 0.05 µM
stability of thiol in solution ([4]; neutral buffered aqueous solution): over 6 h
SMILES: S=C(NN=Cc1ccccc1S)Nc1ccccc1 [Compound 2c]
IC50 [3]: 15.08 ± 0.02 µM
intracellular generation of ROS (DCF fluorescence) (MDA-MB-231 cells [8]): did not elicit significant turn-on response
iron coordination [10]: readily coordinates Fe(II) ions

SMILES: NC(=S)NN=Cc1ncccc1N [Compound 3-AP, 3-Aminopyridine-2-carboxaldehyde thiosemicarbazone]
adverse side effects [11]: methemoglobinemia

SMILES: CC(=O)N(O)CCCCCNC(=O)CCC(=O)N(O)CCCCCNC(=O)CCC(=O)N(O)CCCCCN [DFO, desferrioxamine, reference compound]
IC50 ([1]; SK-N-MC): 10.02 ± 0.06 µM
IC50 ([2]; Homo sapiens, MDA-MB-231, 48 h, 48 h exposure): 17 µM
IC50 ([2]; MDA-MB-231, 48 h exposure): 17.05 ± 0.05 µM
IC50 ([3]; Homo sapiens, MRC5): 8.04 ± 0.03 µM
effect of increasing NAC on toxicity (MDA-MB-231 cells [6]): not affected significantly
RNR tyrosyl radical EPR signal ([7]; 3 h): loss of signal

SMILES: O=C(NN=Cc1ccccc1O)c1ccncc1 [SIH, salicylaldehyde isonicotinoyl hydrazone, reference compound]
calcein fluorescence intensity (Jurkat cells): further increased fluorescence intensity
